Measurements as given in patent publication US12091670B2, “Bacteria-based protein delivery” (Universitaet Basel, priority 2014, dated 2024).
“Also recorded” adds a separate entry of the source.

Legend:
B16F10 cells = type: cell-based
D2A1 cells = type: cell-based
HeLa cells [1] = type: cell-based, human
4T1 cells = type: cell-based
cAMP = type: cell-based, human
HeLa cells [2] = test: Apoptosis induction in HeLa cells by S. enterica aroA delivered murine tBid fusions (cleaved Caspase 3 p17 western blot); type: cell-based, human; settings: 4 h, MOI of 100
HeLa cells [3] = test: Removal of YopE1-138 appendage by T3SS-delivered TEV protease, Western blot of digitonin lysed HeLa cells; type: cell-based, human; settings: coinfection, 2 h
From the text: HeLa cells in 6-well plates were infected at an MOI of 100 as described above. In case of coinfection with the TEV protease translocating Y. enterocolitica strain, the OD600 of the strains was set and the two bacterial suspensions were mixed in a tube at a ratio of 1:1 (if not otherwise indicated) before addition to the cells. At the end of the infection, the cells were washed twice with ice-cold PBS and collected by scraping in a small volume of ice-cold PBS. After centrifugation (16 000 rcf, 5 min, 4° C.) the pellet was dissolved in 0.002% digitonin supplemented with a protease inhibitor cocktail (Roche complete, Roche). The dissolved pellets were incubated for 5 minutes on ice and then centrifuged (16 000 rcf, 25 min, 4° C.). Supernatants were collected and analyzed for total protein content by […] (Pierce) before SDS PAGE and Western blotting using an anti-Myc (Santa Cruz, 9E1 1) or anti-Ink4C (Cell Signaling) antibody.

HeLa cells [4] = type: cell-based, human; remark: listed apart in the source
p38 = type: cell-based, human
Akt = type: cell-based, human
[5] = test system: actin network in HeLa cells; type: cell-based, human
zebrafish embryos = settings: in vivo
[6] = S. enterica aroA grown under SPI-1 T3SS inducing conditions
[7] = S. enterica aroA grown under SPI-2 T3SS inducing conditions

BH3 domain of murine BID: YopE1-138 fusion with BH3 domain of murine tBID, codon optimized for Y. enterocolitica
cell death / apoptosis induction (B16F10 cells): induce massive cell death; also recorded: induces massive apoptosis
cell death / apoptosis induction (D2A1 cells): induce massive cell death; also recorded: induces massive apoptosis
cell death / apoptosis induction (HeLa cells [1]): induce massive cell death; also recorded: induces massive apoptosis
cell death / apoptosis induction (4T1 cells): induce massive cell death; also recorded: induces massive apoptosis

BepA: YopE1-138 fusion with full length type IV effector BepA from B. henselae
cAMP production (cAMP): triggered cAMP production in expected amounts

BepAE30 5-end: YopE1-138 fusion with BepA E305-end containing the C-terminal Bid domain
cAMP production (cAMP): triggered cAMP production in expected amounts

BepG: YopE1-138 fusion with the Bid domain of the B. henselae effector BepG
cAMP production (cAMP): failed to induce cAMP

Murine tBID fused to full length SteA: murine tBID fused to full length SteA, delivered by S. enterica
apoptosis induction (CASP3 p17 production) (HeLa cells [2]; [6]): lead to apoptosis induction in HeLa cells
apoptosis induction (CASP3 p17 production) (HeLa cells [2]; [7]): lead to apoptosis induction in HeLa cells

TEV protease: TEV protease (S219V variant) fused to YopE1-138, delivered via T3SS
function of TEV protease delivered via T3SS (HeLa cells [3]): functional

YopEi_i38-BID: YopE1-138 fusion with human BH3 interacting-domain death agonist (BID)
apoptosis / cell death induction (HeLa cells [4]): failed to induce apoptosis

YopEi_i38-OspF: YopE1-138 fusion with S. flexneri type III effector OspF
TNFa-induced p38 phosphorylation (p38): TNFa-induced phosphorylation was abolished

YopEi_i38-SopB: YopE1-138 fusion with Salmonella type III effector SopB
phosphorylation of Akt at T308 and S473 (Akt): induced a strong phosphorylation of Akt at T308 and 5473

YopEi_i38-SopE-Myc: YopE1-138 fusion with SopE and MycHis tag
changes in the actin network / F-actin rearrangements [5]: triggered massive F-actin rearrangements

YopEi_i38-SopE: YopE1-138 fusion with SopE from Salmonella enterica
changes in the actin network / F-actin rearrangements [5]: induced dramatic changes in the actin network
time of first changes in the actin cytoskeleton [5]: 2 min p.i.
phosphorylation of Akt at T308 and S473 (Akt): had no effect on Akt

YopEi_i38-SptP: YopE1-138 fusion with SptP, GTPase activating protein for Cdc42
effect of co-infection on YopE1-138-SopE-Myc triggered F-actin rearrangements [5]: abolished this effect in a dose dependent manner

YopEi_i38-z-BIM: YopE1-138 fusion with zebrafish apoptosis inducer BIM
apoptosis / cell death induction (HeLa cells [4]): showed clear signs of cell death
automated image analysis of Caspase 3 p17 staining near bacteria (zebrafish embryos): induce apoptosis in nearby cells by far more than control bacteria do
cleaved CASP3 (apoptosis) in regions surrounding the bacteria (zebrafish embryos): strong increase in presence of cleaved CASP3; also recorded: induces apoptosis in zebrafish embryos

murine BAX: YopE1-138 fusion with BH3 domain of murine BAX, codon optimized for Y. enterocolitica
cell death / apoptosis induction (B16F10 cells): induce massive cell death; also recorded: induces massive apoptosis
cell death / apoptosis induction (D2A1 cells): induce massive cell death; also recorded: induces massive apoptosis
cell death / apoptosis induction (HeLa cells [1]): induce massive cell death; also recorded: induces massive apoptosis
cell death / apoptosis induction (4T1 cells): induce massive cell death; also recorded: induces massive apoptosis

murine tBID: YopE1-138 fusion with murine tBID codon optimized for Y. enterocolitica
cell death / apoptosis induction (B16F10 cells): triggered cell death; also recorded: induces massive apoptosis
cell death / apoptosis induction (D2A1 cells): triggered cell death; also recorded: induces massive apoptosis
cell death / apoptosis induction (HeLa cells [1]): triggered cell death; also recorded: induces massive apoptosis
cell death / apoptosis induction (4T1 cells): triggered cell death; also recorded: induces massive apoptosis

B1: SteAi_2o fused murine tBID: murine tBID fused to the 20 N-terminal amino acids of SteA, delivered by S. enterica (protein)
chain: MPYTSVSTYARALSGNKLPHGTGSQASRSFNQGRIEPDSESQEEIIHNIARHLAQIGDEMDHNIQPTLVRQLAAQFMNGSLSEEDKRNCLAKALDEVKTAFPRDMENDKAMLIMTMLLAKKVASHAPSLLRDVFHTTVNFINQNLFSYVRNLVRNEMD
modifications: SteA1-20 - S. enterica codon optimized murine t-BID
notes: murine tBID fused to the 20 N-terminal amino acids of SteA, delivered by S. enterica
apoptosis induction (CASP3 p17 production) (HeLa cells [2]; [6]): failed to induce apoptosis
apoptosis induction (CASP3 p17 production) (HeLa cells [2]; [7]): failed to induce apoptosis
